# Experiments:
# [1] = test system: F-spondin expression in human chondrocytes; assay: Induction of F-spondin expression in human chondrocytes, TaqMan quantitative PCR; type: cell-based
# From the text: In another particular embodiment, the candidate compound is further tested for an effect in an animal model for arthritis, or a cartilage degenerative condition, wherein said arthritis or cartilage degenerative condition is characterized by elevated levels of F-spondin. Examples of animal models for studying arthritis and cartilage degenerative conditions may be found in the following publications, which are incorporated in their entireties: Ameye, L. G. et al., Current Opinion in Rheumatology (2006), 18(5):537-547; Warskyj, M. and Hukins, D W, Br. J. of Rheumatology (1990), 29:219-221; Bolter, S. M. et al., Biorheology, (2006), 43(3-4):379-388; Carlson, C. S. et al., J. Bone Miner. Res. (1996), September; 11(9):1209-1217; Moreau, M. et al., J. Rheumatology (2006), June; 33(6):1176-1183; Laurent, D. et al. Skeletal Radiol., (2006), August; 35(8):555-564; Hotta, H. et al. J. Orthop. Sci. (2005), November; 10(6):595-607; Mastbergen, S. C. et al. Rheumatology (Oxford), (2006), April; 45(4):405-413; and Mastbergen, S. C. et al., Osteoarthritis Cartilage (2006), January; 14(1):39-46. Chambers M. G. et al., Arthritis and Rheumatism (2001) June 44(6):1455-1465. In another particular embodiment, the potential inducers of F-spondin in cartilage/chondrocytes for use in a therapeutic setting may be selected from the group consisting of prostaglandin E2 (PGE2), cAMP inducers, Bone morphogenic protein 2 (BMP-2), Insulin-like growth factor (IGF), Fibroblast growth factor basic (FGFbasic) and Transforming Growth factor b1 (TGF-b1). […] Accordingly, it is envisioned that these agents may be used for treating conditions as described herein.
# OA chondrocytes = assay: Effect of PGE2 on chondrocytes (secretion, NURR1 QPCR); type: cell-based, human
# Description: (§1) F-spondin induced both catabolic and anabolic gene/gene products in chondrocytes including BMP-2, type II collagen, TGF-β1, COX-2, mPGES and PGE2. To begin to address the question of whether selected F-spondin effects in cartilage are mediated by prostaglandin production, we have begun studies to characterize the effect of PGE2 in cartilage. Addition of PGE2 (1-10 uM) to cartilage explants inhibited type II collagen, aggrecan expression, ^35SO4 incorporation, as well as increased type II collagen degradation as assessed by C12C ELISA (IBEX). […] Relative to normals, NURR1 was overexpressed in OA cartilage (2-5 fold) and synovium (2 fold), confirmed by QPCR. Incubation of OA chondrocytes with PGE2 (1-10 uM) induced NURR1 expression (20-50 fold), as analyzed by QPCR. Since NURR1 binds to the NURR1 cis-acting sequence (NBRE) in the promoter region of a variety of genes, we examined the effect of adenoviral-mediated over-expression of NURR1 in chondrocytes.
# cartilage explants = assay: Effect of PGE2 on cartilage explants; type: cell-based, human; settings: PGE2 1-10 uM
# Description: as §1
# [2] = test system: chick sternal chondrocytes; assay: Retinoic acid induced maturation of chick sternal chondrocytes (RT-PCR, AP staining); type: cell-based
# Description: FIGS. 21A and 21B. […] Upper sternal chondrocytes were exposed to 0, 10, 35 or 100 nM retinoic acid (RA) for 5 days in culture. […] (B) Relative gene expression levels of chondrocyte maturation markers were determined by semi-quantitative RT-PCR of RNA harvested from parallel cultures. Values represent mean±std deviation for triplicate samples.
# Chondrocytes were isolated from the cephalic and caudal portion of day 14 chick embryo sterna as described by (Teixeira C C, Shapiro I M, Hatori M, Rajpurohit R, Koch C. Retinoic acid modulation of glutathione and cysteine metabolism in chondrocytes. Biochem J 1996; 314 (Pt 1):21-6). After 5 days of primary culture, chondrocytes were separated from the attached fibroblasts, harvested by centrifugation, counted, and plated in tissue culture dishes in complete medium supplemented with hyaluronidase (4-units/ml) to promote attachment. After becoming confluent, and to induce maturation, cells were treated daily with all-trans retinoic acid (35-100 nM) (Sigma) in the presence of ascorbate-2-phosphate (100 μM) for 1 week. Control cultures were treated with an equal volume of vehicle. Cultures were provided with β-glycerophosphate (5 mM) to serve as phosphate donor. For transfections, chondrocytes were transiently transfected with a plasmid encoding full length F-spondin cDNA under control of a CMV promoter, 1 day after plating in monolayer culture, using the FuGene 6 Transfection Reagent (Roche, Nutley, N.J.) according to the manufacturer's specifications. Parallel transfections with a CMV-GFP plasmid was used as a null control and to estimate transfection efficiency.
# To investigate the role of F-spondin in chondrocyte maturation, we used an in vitro model in which chick sternal chondrocytes mimic growth plate chondrocytes and undergo terminal differentiation in response to RA treatment. […] Chick chondrocytes were stimulated with increasing doses of RA (10-100 nm) and harvested for gene expression analysis by qPCR after 5 days. The relative gene expression of type X collagen (ColX), alkaline phosphatae (AP), MMP-13, and F-spondin were assessed with increasing maturation on RA stimulation (FIG. 14).
# Chondrocytes were isolated from the cephalic (upper) portion of 14 day old chick embryo sterna as previously described (Teixeira, C. C., et al. (1995) Calcif Tissue Int 56:252-56).^15. After 5 days of primary culture, floating chondrocytes were separated from the attached fibroblasts, and plated in tissue culture dishes in DMEM supplemented with 10% FBS and hyaluronidase (4-units/ml) to promote attachment. At confluence, differentiation was induced by daily treatment with all-trans retinoic acid (RA) from 0.1% v/v aliquots of a 1000-fold stock solution in 95% ethanol. Final concentrations ranged from 10 to 100 nM. To examine the effect of F-spondin overexpression, cultures were transfected at 70-80% confluence, with either full length (pFSI), truncated (pFS6) F-spondin cDNAs or control vector pcDNA3 (Invitrogen) using GenePorter transfection reagent (Genlantis, San Diego, Calif.). Differentiation was induced by daily treatments with 100 nM RA, which were initiated the following day. For F-spondin inhibition studies, a TSR domain specific F-spondin antibody (R1), or a spondin domain specific F-spondin antibody (R4) (R1 and R4 antibodies were provided by Dr. Avihu Klar (Hebrew University, Jerusalem, Israel), were added to chondrocyte cultures (1:100 dilution), every other day 1 h prior to RA treatment.
# Different regions of the chick growth plate were visually identified and dissected into separate tubes, frozen in liquid nitrogen and crushed. Total RNA was extracted using Trizol® reagent (Life Technologies, Gaitherburg, Md.) per manufacturer's instructions.
# bone marrow-derived MSCs = assay: Chondrogenesis of bone marrow-derived MSC aggregate cultures; type: cell-based; settings: for staining for proteoglycan, type II and type X collagen: 21 d aggregates, adenoviral expression 50 ng/ml; for chondrogenesis in aggregate cultures: adult bone marrow-derived MSCs
# Description: FIG. 6: Chondrogenesis of postnatal MSCs following exposure to TGF-β and BMP-2. Bone marrow-derived MSCs were modified to express 50 ng/ml BMP-2 or TGF-β1 using first generation recombinant adenoviral vectors and seeded into high density aggregates. After 21 d, aggregates were fixed, sectioned and stained for the presence of chondrogenic markers using toluidine blue (proteoglycan) and immunostaining for type II and X collagen. This pattern was consistent over three experiments.
# Upon histological examination important differences between TGF-β1 and BMP-2-treated cultures were noted (FIG. 6). […] We propose to extend these studies further, in order to more fully characterize extracellular matrix protein expression during chondrocyte maturation and the relationship to F-spondin, by comparing the effects of various chondroinductive factors.
molecule,measurement,setting,value
"CCCCC[C@H](O)/C=C/[C@H]1[C@H](O)CC(=O)[C@@H]1C/C=C\CCCC(=O)O [PGE2, prostaglandin E2]",F-spondin expression,[1],induced F-spondin expression
same,induction of NURR1 expression,"OA chondrocytes; OA chondrocytes, PGE2 1-10 uM, QPCR",20-50 fold
same,MMP-1 secretion,OA chondrocytes; chondrocytes,decreased
same,secretion of IL-6,OA chondrocytes; chondrocytes,increased
same,secretion of IL-8,OA chondrocytes; chondrocytes,increased
same,secretion of MMP-13,OA chondrocytes; chondrocytes,increased
same,35SO4 incorporation,cartilage explants,inhibited
same,aggrecan expression,cartilage explants,inhibited
same,type II collagen degradation (C12C ELISA),cartilage explants,increased
same,type II collagen expression,cartilage explants,inhibited
"CC1=C(/C=C/C(C)=C/C=C/C(C)=C/C(=O)O)C(C)(C)CCC1 [RA, all-trans retinoic acid]",F-spondin expression relative to controls,"[2]; 100 nM RA, 5 days, p=0.04",approximately 3 fold
same,MMP-13 expression,"[2]; RA 0-100 nM, 5 days, RT-PCR",increased
same,VEGF expression,"[2]; RA 0-100 nM, 5 days, RT-PCR",increased
same,type I collagen expression,"[2]; RA 0-100 nM, 5 days, RT-PCR",pronounced upregulation
same,type II collagen expression,"[2]; RA 0-100 nM, 5 days, RT-PCR",marked downregulation
same,type X collagen expression,"[2]; RA 0-100 nM, 5 days, RT-PCR",did not increase
same,AP activity (red staining),"[2]; RA 0-100 nm, 5 days",dose dependant increase
same,increase in F-spondin gene expression,"[2]; RA 10-100 nm, 5 days, vs non-stimulated controls",2- to 4 fold
same,upregulation of F-spondin following RA treatment,"[2]; chick sternal model, p<0.05",3.5 fold
FGF basic: Fibroblast growth factor basic,F-spondin expression,[1],induced F-spondin expression
TGF-β1: Transforming growth factor-beta 1,"staining for proteoglycan, type II and type X collagen",bone marrow-derived MSCs,generally lower
same,chondrogenesis in aggregate cultures,bone marrow-derived MSCs,undergo chondrogenesis
same,F-spondin expression,[1],induced F-spondin expression
"BMP-2: protein that induces the formation of bone and cartilage (protein, listed as Homo sapiens) MVAGTRCLLALLLPQVLLGGAAGLVPELGRRKFAAASSGRPSSQPSDEVLSEFELRLLSMFGLKQRPTPSRDAVVPPYMLDLYRRHSGQPGSPAPDHRLERAASRANTVRSFHHEESLEELPETSGKTTRRFFFNLSSIPTEEFITSAELQVFREQMQDALGNNSSFHHRINIYEIIKPATANSKFPVTRLLDTRLVNQNASRWESFDVTPAVMRWTAQGHANHGFVVEVAHLEEKQGVSKRHVRISRSLHQDEHSWSQIRPLLVTFGHDGKGHPLHKREKRQAKHKQRKRLKSSCKRHPLYVDFSDVGWNDWIVAPPGYHAFYCHGECPFPLADHLNSTNHAIVQTLVNSVNSKIPKACCVPTELSAISMLYLDENEKVVLKNYQDMVVEGCGCR","staining for proteoglycan, type II and type X collagen",bone marrow-derived MSCs,more intense staining
same,chondrogenesis in aggregate cultures,bone marrow-derived MSCs,undergo chondrogenesis
same,F-spondin expression,[1],induced F-spondin expression

# From patent publication US20140274766A1, “METHODS OF USING F-SPONDIN AS A BIOMARKER FOR CARTILAGE DEGENERATIVE CONDITIONS AND BONE DISEASES” (priority 2009, published 2014)
